“And” between values parts separate entries of the source, which are not always exact repeats. Identical values can stand only once. Like-named read-outs stand apart in the source and are kept apart here.
Experiments:
Format in all cases: in vivo
[1] = test system: New Zealand White rabbits
Description: On Days 1-31, animals received daily topical doses of the appropriate test article into the right eye. Animals were dosed four times per day, with doses administered 2 hours apart. Doses were administered using a calibrated 50-μL pipette. The eyelids were held close for 10 seconds immediately following dosing. The time of each dose administration was recorded.
Animals determined to be moribund were euthanized with an intravenous injection of commercial euthanasia solution.

rabbit eye [2] = experiment: Clinical evaluation by slit lamp (clinical score), rabbit paracentesis model; parameters: key to Clinical Score −180 min / Clinical Score −5 min / Clinical Score +115 min: 0: normal; 1: discrete dilatation of iris and conjunctival vessels; 2: moderate dilatation of iris and conjunctival vessels; 3: intense iridal hyperemia with flare in the anterior chamber; 4: intense iridal hyperemia with flare in the anterior chamber and presence of fibrinous exudates; settings: for Clinical Score −5 min: 5 min before the first paracentesis; for Clinical Score −5 min / Clinical Score +115 min / Clinical Score −180 min: individual eyes; for Clinical Score +115 min: 5 min before the second paracentesis; for Clinical Score −180 min: basal
rabbit eye [3] = experiment: Pupillary diameter measurement, rabbit paracentesis model; settings: individual eyes; for Pupillary diameter T2: −5 min: 5 min before the first paracentesis; for Pupillary diameter T3: +115 min: 5 min before the second paracentesis; for Pupillary diameter Δ(T3 − T1): +115 min minus −180 min; for Pupillary diameter T1: −180 min: basal
Description: (§1) Each rabbit was placed in a restraint device and tagged with the alphanumeric code. The formulations were instilled (50 μl) into the conjunctival sac of both eyes 180, 120, 90 and 30 min before the first paracentesis; then 15, 30, 90 min after the first paracentesis. To perform the first paracentesis the animals were anaesthetized by intravenous injection of 5 mg/kg Zoletil® (Virbac; 2.5 mg/kg tiletamine HCl and 2.5 mg/kg zolazepam HCl) and one drop of local anesthetic (Novesina®, Novartis) was administered to the eye. Anterior chamber paracentesis was performed with a 26 G needle attached to a tuberculin syringe; the needle was introduced into the anterior chamber through the cornea, taking care not to damage the tissues. Two hours after the ® first paracentesis, the animals were sacrificed with 0.4 ml Tanax® (Intervet International B.V.) and the second paracentesis was performed. About 100 μl of aqueous humor were removed at the second paracentesis. Aqueous humor was immediately split in four aliquots and stored at −80° C. until analysis. Then both eyes were enucleated and the iris-ciliary body was carefully excised, placed in polypropylene tubes, and stored at −80° C. until analysis.
The pupillary diameter of both eyes was measured with a Castroviejo caliper 180 min and 5 min before the first paracentesis and 5 min before the second paracentesis.
(§2) Pupillary diameter, PGE2, protein, PMN, and MPO were expressed as mean±SEM. Statistical analysis was performed using one way ANOVA followed by a Newman-Keuls post hoc test. Clinical score was expressed as % of eyes and the statistical analysis was performed using Kruskal-Wallis followed by a Dunn post hoc test. P<0.05 was considered statistically significant in both cases. Prism 4 software (GraphPad Software, Inc.) was used for the analysis and graphs.

[4] = test system: protein concentration in the aqueous humor; experiment: Protein measurement in aqueous humor, rabbit paracentesis model; settings: for Protein in aqueous humor, Mean / Protein in aqueous humor: second paracentesis; for Protein in aqueous humor: individual eyes
Description: as §1
For protein concentration determination in the aqueous humor we used the Protein Quantification Kit (Fluka; Cat. No. 77371; Lot. No. 1303129). Five microliters of aqueous humor were diluted to 100 μl with water. Twenty microliters of samples and of standards were load into a 96-well plate and recorded in a plate layout. Samples were treated following the assay procedure described in the kit. A microplate reader (GDV, Italy; model DV 990 B/V6) set at 670 nm was used for making the calibration and analyzing the samples.
as §2

[5] = test system: PGE2 in the aqueous humor; experiment: Prostaglandin E2 (PGE2) measurement in aqueous humor, rabbit paracentesis model; settings: for PGE2 in aqueous humor, statistical significance versus CTR: p<0.05; for PGE2 in aqueous humor, Mean / PGE2 in aqueous humor: second paracentesis; for PGE2 in aqueous humor: individual eyes
Description: as §1
For the quantitative determination of PGE2 in the aqueous humor we used the PGE2 Immunoassay kit (R&D Systems; Cat. No. KGE004; Lot. No. 240010). Eleven microliters or 16 μl of aqueous humor were diluted to 110 μl or 160 μl with the calibrator diluent solution provided with the kit. One hundred microliters of samples and of standards were load into a 96-well plate and recorded in a plate layout. Samples were treated following the assay procedure described in the kit. A microplate reader (GDV, Italy; model DV 990 B/V6) set at 450 nm (wavelength correction at 540 nm) was used for making the calibration and analyzing the samples.
as §2

leukocytes (PMN) = experiment: Leukocytes (PMN) measurement in aqueous humor, rabbit paracentesis model; settings: second paracentesis; for PMN in aqueous humor: individual eyes
Description: as §1
For the determination of the number of leukocytes we used a haemocytometer (Improved Neubauer Chamber; Bright-line. Hausser Scientific) and a Polyvar 2 microscope (Reichert-Jung).
as §2

Myeloperoxidase (MPO) = Myeloperoxidase (MPO) activity in iris-ciliary body, rabbit paracentesis model; settings: for MPO Unit/g: iris-ciliary body samples collected after the second paracentesis, individual eyes (DX/SX); for MPO activity in iris-ciliary body, Mean: after the second paracentesis
Description: as §1
The activity of MPO was measured as previously described by Williams et al. The iris-ciliary bodies were carefully dried, weighed and immersed in 1 ml of hexa-decyl-trimethyl-ammonium bromide solution. Then, the samples were sonicated for 10 sec on ice by a ultrasound homogenizer (HD 2070, Bandelin electronic), freeze-thawed three times, sonicated for 10 sec and centrifuged at 14,000 g for 10 min to remove cellular debris. An aliquot of the supernatant (40-200 μl) was diluted to 3 ml with the o-dianisidine 2HCl/H2O2 solution. The change in absorbance at 460 nm was continuously monitored for 5 min by a spectrophotometer (UV/Vis Spectrometer Lambda EZ 201; Perkin Elmer). The slope of the line (Δ/min) was determined for each sample and used to calculate the number of units of MPO in the tissue as follows:
were ε=11.3 mM^−1. Values were expressed as units of MPO/g of tissue.
as §2

[6] = 5 mg/g BOL-303242-X ([…]) topical 4 x daily, individual rabbits, Group C
[7] = 1 mg/g BOL-303242-X (0.05 mg/dose) topical 4 x daily, individual rabbit, Group D
[8] = 0.5% topical formulation, +115 min, 8 eyes

Structure (SMILES): Cc1ccc2c(NC[C@](O)(CC(C)(C)c3cc(F)cc4c3OCC4)C(F)(F)F)cccc2n1 [BOL-30324 2-X]
- Day of Death (day euthanized or found dead) [1, 6]: 17
- Recorded Notes (mortality) [1, 6]: Euthanized due to severe diarrhea.

Structure (SMILES): Cc1ccc2c(NC[C@](O)(CC(C)(C)c3cc(F)cc4c3OCC4)C(F)(F)F)cccc2n1 [BOL-303242 X]
- Day of Death (day euthanized or found dead) [1, 7]: 29
- Recorded Notes (mortality) [1, 7]: Found dead.

Structure (SMILES): CC(C(=O)O)c1ccc(-c2ccccc2)c(F)c1 (stereo not drawn) [F, flurbiprofen, reference compound]
- Clinical Score −5 min (rabbit eye [2]; 0.03% topical formulation): 0
- Clinical Score +115 min (rabbit eye [2]; 0.03% topical formulation): 2
- Clinical score as percentage of eyes, Score (%) 2 (rabbit eye [2]; 0.03% topical formulation, +115 min, 8 eyes): 100%
- Clinical Score −180 min (rabbit eye [2]; 0.03% topical formulation): 0
- Clinical score as percentage of eyes, Score (%) 0 (rabbit eye [2]; 0.03% topical formulation, −5 min, 8 eyes): 100%
- Clinical score as percentage of eyes, Score (%) 0 (rabbit eye [2]; 0.03% topical formulation, −180 min (basal), 8 eyes): 100%
- Pupillary diameter T2: −5 min (rabbit eye [3]; 0.03% topical formulation): 6.0 mm (3×) and 6.5 mm (3×) and 7.0 mm and 5.5 mm
- Pupillary diameter T3: +115 min (rabbit eye [3]; 0.03% topical formulation): 4.0 mm and 3.5 mm and 5.5 mm (2×) and 5.0 mm (2×) and 4.5 mm and 6.0 mm
- Pupillary diameter Δ(T3 − T1) (rabbit eye [3]; 0.03% topical formulation): −1.0 mm (3×) and −1.5 mm (3×) and 0.0 mm (2×)
- Pupillary diameter T1: −180 min (rabbit eye [3]; 0.03% topical formulation): 5.0 mm (2×) and 7.0 mm and 6.0 mm (4×) and 5.5 mm
- Protein in aqueous humor, statistical significance vs CTR ([4]; 0.03% topical formulation, p<0.001): statistical significance
- Protein in aqueous humor, Mean ([4]; 0.03% topical formulation): 20.910 mg/mL
- Protein in aqueous humor ([4]; 0.03% topical formulation): 20.78 mg/mL and 28.80 mg/mL and 23.41 mg/mL and 20.21 mg/mL and 17.53 mg/mL and 15.12 mg/mL and 20.52 mg/mL
- PGE2 in aqueous humor, statistical significance versus CTR ([5]; 0.03% topical formulation): statistically significant versus CTR
- PGE2 in aqueous humor, Mean ([5]; 0.03% topical formulation): 1.189 ng/mL
- PGE2 in aqueous humor ([5]; 0.03% topical formulation): 1.04 ng/ml and 0.75 ng/ml and 0.85 ng/ml and 1.11 ng/ml and 2.11 ng/ml (2×) and 0.93 ng/ml and 0.61 ng/ml
- PMN in aqueous humor, Mean (leukocytes (PMN); 0.03% topical formulation): 30.000 number/μl
- PMN in aqueous humor (leukocytes (PMN); 0.03% topical formulation): 50 number/μl and 40 number/μl (2×) and 20 number/μl (2×) and 10 number/μl and 30 number/μl
- MPO Unit/g (Myeloperoxidase (MPO); 0.03% F): 1.10 Unit/g and 1.70 Unit/g and 0.34 Unit/g and 0.75 Unit/g and 0.74 Unit/g and 0.63 Unit/g and 0.73 Unit/g and 1.27 Unit/g
- MPO activity in iris-ciliary body, Mean (Myeloperoxidase (MPO); 0.03% topical formulation): 0.906 MPO Unit/g

Structure (SMILES): CCOC(=O)O[C@]1(C(=O)OCCl)CC[C@H]2[C@@H]3CCC4=CC(=O)C=C[C@]4(C)[C@H]3[C@@H](O)C[C@@]21C [LE, loteprednol etabonate, reference compound]
- Clinical Score −5 min (rabbit eye [2]; 0.5% topical formulation): 0
- Clinical Score +115 min (rabbit eye [2]; 0.5% topical formulation): 2 (2×) and 1 (6×)
- Clinical score as percentage of eyes, Score (%) 1 (rabbit eye [2]; [8]): 75%
- Clinical score as percentage of eyes, Score (%) 2 (rabbit eye [2]; [8]): 25%
- Clinical Score −180 min (rabbit eye [2]; 0.5% topical formulation): 0
- Clinical score, difference versus CTR (rabbit eye [2]; 0.5% topical formulation, p<0.05): significant difference versus CTR
- Clinical score as percentage of eyes, Score (%) 0 (rabbit eye [2]; 0.5% topical formulation, −5 min, 8 eyes): 100%
- Clinical score as percentage of eyes, Score (%) 0 (rabbit eye [2]; 0.5% topical formulation, −180 min (basal), 8 eyes): 100%
- Pupillary diameter T2: −5 min (rabbit eye [3]; 0.5% topical formulation): 6.0 mm (3×) and 6.5 mm (5×)
- Pupillary diameter T3: +115 min (rabbit eye [3]; 0.5% topical formulation): 4.5 mm and 5.0 mm (2×) and 5.5 mm (2×) and 6.0 mm (3×)
- Pupillary diameter Δ(T3 − T1) (rabbit eye [3]; 0.5% topical formulation): −1.5 mm (2×) and −1.0 mm (3×) and 0.0 mm and −0.5 mm (2×)
- Pupillary diameter T1: −180 min (rabbit eye [3]; 0.5% topical formulation): 6.0 mm (3×) and 6.5 mm (5×)
- Protein in aqueous humor, Mean ([4]; 0.5% topical formulation): 33.905 mg/mL
- Protein in aqueous humor ([4]; 0.5% topical formulation): 36.14 mg/mL and 39.10 mg/mL and 34.69 mg/mL and 26.10 mg/mL and 26.30 mg/mL and 28.16 mg/mL and 40.90 mg/mL and 39.85 mg/mL
- PGE2 in aqueous humor, statistical significance versus CTR ([5]; 0.5% topical formulation): statistically significant versus CTR
- PGE2 in aqueous humor, Mean ([5]; 0.5% topical formulation): 0.672 ng/mL
- PGE2 in aqueous humor ([5]; 0.5% topical formulation): ^2N/D and 0.23 ng/ml and 0.68 ng/ml and 1.10 ng/ml
- PMN in aqueous humor, Mean (leukocytes (PMN); 0.5% topical formulation): 28.333 number/μl
- PMN in aqueous humor (leukocytes (PMN); 0.5% topical formulation): 40 number/μl (2×) and 20 number/μl (3×) and 30 number/μl
- MPO Unit/g (Myeloperoxidase (MPO); 0.5% LE): 0.30 Unit/g and 0.51 Unit/g and 0.81 Unit/g and 0.60 Unit/g and 0.73 Unit/g and 1.01 Unit/g
- MPO activity in iris-ciliary body, Mean (Myeloperoxidase (MPO); 0.5% topical formulation): 0.661 MPO Unit/g
